Test results reported in patent publication US5252598A, “Labdane derivatives, a process for their preparation, and their use as medicaments” (Hoechst Aktiengesellschaft, priority 1987, dated 1993).
≈ marks a conversion by molar mass, not a printed value. Where a name gives a salt, the structure may show the parent alone.

Test system: Guinea pig atrium
Assay: Positive inotropic activity (contractility of isolated guinea pig atrium)
Assay type: cell-based
Conditions: Cavia porcellus, isolated left and right atria, Ringer's solution, 32° C., contractility recorded 7 to 10 minutes
Procedure: Guineapigs of both sexes and weighing 400 g were sacrificed, and the heart was removed and placed in Ringer's solution at room temperature. Both the left and the right atria were then isolated and fixed in an organ holder, and the preparation was placed in an organ bath containing Ringer's solution and maintained at a temperature of 32° C. Carbogen (95% O2 and 5% CO2) was then bubbled through the organ bath. The compound to be tested is dissolved directly in water together with a stoichiometric amount of 0.1N HCL or a salt thereof to give a solution of known concentration and the latter is added to the bath. The contractility of the atrium is recorded for 7 to 10 minutes on a Nihon Kohden 4-channel pen recorder with an isometric strain gage. The activity is expressed on the basis of the resulting data as the EC50.

EC50 | SMILES
0.028 µg/mL (≈ 0.0713 µM) | C=C[C@@]1(C)CC(=O)[C@@]2(O)[C@](C)(O1)[C@@H](OC(C)=O)C=C1C(C)(C)CC[C@H](O)[C@@]12C [COCH3]
0.3 µg/mL (≈ 0.647 µM) | C=C[C@@]1(C)CC(=O)[C@@]2(O)[C@](C)(O1)[C@@H](OC(=O)N1CCOCC1)C=C1C(C)(C)CC[C@H](O)[C@@]12C [drawing 83]
0.14 µg/mL (≈ 0.284 µM) | C=C[C@@]1(C)CC(=O)[C@@]2(O)[C@](C)(O1)[C@@H](OC(=O)CN1CCSCC1)C=C1C(C)(C)CC[C@H](O)[C@@]12C
0.079 µg/mL (≈ 0.156 µM) | C=C[C@@]1(C)CC(=O)[C@@]2(O)[C@](C)(O1)[C@@H](OC(=O)CN1CC(C)OC(C)C1)C=C1C(C)(C)CC[C@H](O)[C@@]12C (some centres unmarked)
0.72 µg/mL (≈ 1.28 µM) | C=C[C@@]1(C)CC(=O)[C@@]2(O)[C@](C)(O1)[C@@H](OC(=O)COC(=O)CN1CC(C)OC(C)C1)C=C1C(C)(C)CC[C@H](O)[C@@]12C (some centres unmarked)
0.3 µg/mL (≈ 0.594 µM) | C=C[C@@]1(C)CC(=O)[C@@]2(O)[C@](C)(O1)[C@@H](OC(=O)CCN1CCN(C)CC1)C=C1C(C)(C)CC[C@H](O)[C@@]12C
0.44 µg/mL (≈ 0.802 µM) | C=C[C@@]1(C)CC(=O)[C@@]2(O)[C@](C)(O1)[C@@H](OC(=O)COC(=O)CN1CCN(C)CC1)C=C1C(C)(C)CC[C@H](O)[C@@]12C
1 µg/mL (≈ 1.87 µM) | C=C[C@@]1(C)CC(=O)[C@@]2(O)[C@](C)(O1)[C@@H](OC(=O)COC(=O)CN1CCOCC1)C=C1C(C)(C)CC[C@H](O)[C@@]12C
0.28 µg/mL (≈ 0.572 µM) | C=C[C@@]1(C)CC(=O)[C@@]2(O)[C@](C)(O1)[C@@H](OC(=O)CCN1CCCCC1)C=C1C(C)(C)CC[C@H](O)[C@@]12C
0.058 µg/mL (≈ 0.125 µM) | C=C[C@@]1(C)CC(=O)[C@@]2(O)[C@](C)(O1)[C@@H](OC(=O)CCCN(C)C)C=C1C(C)(C)CC[C@H](O)[C@@]12C [CO(CH2)3 N(CH3)2, 1α,9α-Dihydroxy-7β-(4-N,N-dimethylaminobutyryloxy)8,13-epoxylabda-5,14-dien-11-one]
0.051 µg/mL (≈ 0.125 µM) | C=C[C@@]1(C)CC(=O)[C@@]2(O)[C@](C)(O1)[C@@H](OC(=O)NC)C=C1C(C)(C)CC[C@H](O)[C@@]12C [CONHCH3]
0.037 µg/mL (≈ 0.0753 µM) | C=C[C@@]1(C)CC(=O)[C@@]2(O)[C@](C)(O1)[C@@H](OC(=O)CCCN(CC)CC)C=C1C(C)(C)CC[C@H](O)[C@@]12C [CO(CH2)3 NEt2, 1α,9α-Dihydroxy-7β-(4-diethylaminobutyryloxy)-8,13-epoxylabda-5,14-dien-11-one]
0.072 µg/mL (≈ 0.151 µM) | C=C[C@@]1(C)CC(=O)[C@@]2(O)[C@](C)(O1)[C@@H](OC(=O)CN1CCCCC1)C=C1C(C)(C)CC[C@H](O)[C@@]12C [drawing 92]
0.24 µg/mL (≈ 0.504 µM) | C=C[C@@]1(C)CC(=O)[C@@]2(O)[C@](C)(O1)[C@@H](OC(=O)N1CCN(C)CC1)C=C1C(C)(C)CC[C@H](O)[C@@]12C
0.12 µg/mL (≈ 0.231 µM) | C=C[C@@]1(C)CC(=O)[C@@]2(O)[C@](C)(O1)[C@@H](OC(=O)CCCN1CCN(C)CC1)C=C1C(C)(C)CC[C@H](O)[C@@]12C
0.17 µg/mL (≈ 0.327 µM) | C=C[C@@]1(C)CC(=O)[C@@]2(O)[C@](C)(O1)[C@@H](OC(=O)CCCCN1CCOCC1)C=C1C(C)(C)CC[C@H](O)[C@@]12C
3 µg/mL (≈ 5.62 µM) | C=C[C@@]1(C)CC(=O)[C@@]2(O)[C@](C)(O1)[C@@H](OC(=O)COC(=O)CN1CCCCC1)C=C1C(C)(C)CC[C@H](O)[C@@]12C
0.0008 µg/mL (≈ 0.00182 µM) | C=C[C@@]1(C)CC(=O)[C@@]2(O)[C@](C)(O1)[C@@H](OC(=O)[C@H](O)CO)C=C1C(C)(C)CC[C@H](O)[C@@]12C [drawing 82]
0.755 µg/mL (≈ 1.58 µM) | C=C[C@@]1(C)CC(=O)[C@@]2(O)[C@](C)(O1)[C@@H](OC(=O)CCCCN(C)C)C=C1C(C)(C)CC[C@H](O)[C@@]12C [CO(CH2)4 NMe2, 1α,9α-Dihydroxy-7β-(5-dimethylaminovaleryloxy)-8,13-epoxylabda-5,14-dien-11-one]

Second part, the molecule before the results:

SMILES | EC50
C=C[C@@]1(C)CC(=O)[C@@]2(O)[C@](C)(O1)[C@@H](OC(=O)COC(=O)CCN1CCN(C)CC1)C=C1C(C)(C)CC[C@H](O)[C@@]12C | 1 µg/mL (≈ 1.78 µM)
C=C[C@@]1(C)CC(=O)[C@@]2(O)[C@](C)(O1)[C@@H](OC(=O)CN(CC)CC)C=C1C(C)(C)CC[C@H](O)[C@@]12C [COCH2 N(C2 H5)2, 7β-Diethylaminoacetoxy-1α,9α-dihydroxy-8,13-epoxy-labd-5,14-dien-11-one hydrochloride] | 0.72 µg/mL
C=C[C@@]1(C)CC(=O)[C@@]2(O)[C@](C)(O1)[C@@H](OC(=O)COC=O)C=C1C(C)(C)CC[C@H](O)[C@@]12C [COCH2 OCHO, 1α,9α-dihydroxy-8,13-epoxy-7β-formyloxyacetoxylabda-5,14-dien-11-one] | 0.024 µg/mL (≈ 0.055 µM)
C=C[C@@]1(C)CC(=O)[C@@]2(O)[C@](C)(O1)[C@@H](OC(=O)COC(=O)CN(C)C)C=C1C(C)(C)CC[C@H](O)[C@@]12C [COCH2 OCOCH2 NMe2, 1α,9α-Dihydroxy-7β-(N,N-dimethylaminoacetoxy)acetoxy-8,13-epoxy-labd-5,14-dien-11-one hydrochloride] | 0.8 µg/mL
C=C[C@@]1(C)CC(=O)[C@@]2(O)[C@](C)(O1)[C@@H](OC(=O)COC(=O)CN(CC)CC)C=C1C(C)(C)CC[C@H](O)[C@@]12C [COCH2 OCOCH2 NEt2, hydrochloride hydrate] | 0.018 µg/mL
C=C[C@@]1(C)CC(=O)[C@@]2(O)[C@](C)(O1)[C@@H](OC(=O)CN1CCC(O)(c3ccccc3)CC1)C=C1C(C)(C)CC[C@H](O)[C@@]12C | 0.3 µg/mL (≈ 0.528 µM)

Same assay, conditions: isolated left and right atria, Ringer's solution, 32° C., contractility recorded 7 to 10 minutes

Guinea pig atrium EC50 | SMILES
0.615 µg/mL | C=C[C@@]1(C)CC(=O)[C@@]2(O)[C@](C)(O1)[C@@H](OC(=O)CCCCN(C)C)C=C1C(C)(C)CC[C@H](O)[C@@]12C [CO(CH2)4 NMe2, 1α,9α-Dihydroxy-7β-(5-dimethylaminovaleryloxy)-8,13-epoxylabda-5,14-dien-11-one]

Test system: cats
Assay: Antihypertensive effect: blood pressure in anesthetized cats
Assay type: in vivo
Conditions: anesthetized cat, i.v., 1 mg/kg
Procedure: Cats of both sexes and weighing 3 to 4 kg were anesthetized with ether and maintained under chloralose anesthesia (70 mg/kg i.v.). Cannulas were placed in the femoral artery and in the femoral vein to record the blood pressure and to administer the medicament, respectively. The blood pressure in the femoral artery was recorded using a Statham P 23 Db pressure transducer on a Nihon-Kohden pen recorder for physiological purposes. The compound to be tested was dissolved, if a salt, in distilled water, otherwise in propylene glycol and administered intravenously. The fall in blood pressure and the duration of the hypotensive activity were determined.

SMILES | Decrease in BP | Duration (hypotensive activity)
C=C[C@@]1(C)CC(=O)[C@@]2(O)[C@](C)(O1)[C@@H](OC(=O)CN1CCCC1)C=C1C(C)(C)CC[C@H](O)[C@@]12C | 40 mm Hg | 90 min
C=C[C@@]1(C)CC(=O)[C@@]2(O)[C@](C)(O1)[C@@H](OC(=O)CN(CC)CC)C=C1C(C)(C)CC[C@H](O)[C@@]12C [COCH2 N(C2 H5)2, 7β-Diethylaminoacetoxy-1α,9α-dihydroxy-8,13-epoxy-labd-5,14-dien-11-one hydrochloride] | 36 mm Hg | > 60 min
C=C[C@@]1(C)CC(=O)[C@@]2(O)[C@](C)(O1)[C@@H](OC(=O)N1CCOCC1)C=C1C(C)(C)CC[C@H](O)[C@@]12C [drawing 106] | 32 mm Hg | 45 min
C=C[C@@]1(C)CC(=O)[C@@]2(O)[C@](C)(O1)[C@@H](OC(=O)CN1CCN(C)CC1)C=C1C(C)(C)CC[C@H](O)[C@@]12C [drawing 108] | 40 mm Hg | > 120 min
C=C[C@@]1(C)CC(=O)[C@@]2(O)[C@](C)(O1)[C@@H](OC(=O)CN1CCCCC1)C=C1C(C)(C)CC[C@H](O)[C@@]12C [drawing 107] | 30 mm Hg | 90 min

Test system: conscious rabbits
Assay: Reduction in intraocular pressure in conscious rabbits
Assay type: in vivo
Conditions: rabbit, instilled into one eye, dose percentage 0.25
Procedure: For this experiment rabbits of both sexes and weighing 2 to 3 kg are used. The intraocular pressure (IOP) is measured with a Schioetz tonometer after corneal anesthesia with 2% strength novocaine solution. […] […] The IOP is measured at defined time intervals, i.e. after 0.5, 1, 2, 3, 4 and 5 hours. The percentage reduction in the IOP is calculated using the baseline value.

SMILES | % decrease in IOD | Duration (decrease in IOD)
C=C[C@@]1(C)CC(=O)[C@@]2(O)[C@](C)(O1)[C@@H](OC(=O)[C@H](O)CO)C=C1C(C)(C)CC[C@H](O)[C@@]12C [drawing 101] | 35.0% | > 360 min

Same assay, conditions: rabbit, instilled into one eye, dose percentage 1.00

SMILES | % decrease in IOD | Duration (decrease in IOD)
C=C[C@@]1(C)CC(=O)[C@@]2(O)[C@](C)(O1)[C@@H](OC(N)=O)C=C1C(C)(C)CC[C@H](O)[C@@]12C [CONH2, 7β-Amino-carbonyloxy-1α,9α-dihydroxy-8,13-epoxy-labd-5,14-dien-11-one] | 30.0% | > 360 min
C=C[C@@]1(C)CC(=O)[C@@]2(O)[C@](C)(O1)[C@@H](OC(=O)NCCCC)C=C1C(C)(C)CC[C@H](O)[C@@]12C [CONH(CH2)3 CH3] | 27.0% | > 360 min
C=C[C@@]1(C)CC(=O)[C@@]2(O)[C@](C)(O1)[C@@H](OC(=O)NC)C=C1C(C)(C)CC[C@H](O)[C@@]12C [CONHCH3] | 24.0% | > 360 min
C=C[C@@]1(C)CC(=O)[C@@]2(O)[C@](C)(O1)[C@@H](OC(=O)N1CCCC1)C=C1C(C)(C)CC[C@H](O)[C@@]12C | 26.0% | 240 min

Same assay, conditions: rabbit, instilled into one eye, dose percentage 2.00

SMILES | % decrease in IOD | Duration (decrease in IOD)
C=C[C@@]1(C)CC(=O)[C@@]2(O)[C@](C)(O1)[C@@H](OC(=O)CN1CCOCC1)C=C1C(C)(C)CC[C@H](O)[C@@]12C | 20.3% | 360 min
C=C[C@@]1(C)CC(=O)[C@@]2(O)[C@](C)(O1)[C@@H](OC(=O)CN1CCN(C)CC1)C=C1C(C)(C)CC[C@H](O)[C@@]12C [drawing 104] | 23.9% | 360 min
